{"source": "ChEMBL document CHEMBL5465560", "about": "“Selectivity Literature for EUbOPEN Chemogenomic Library” (2024)", "key": {"[1]": {"molecular_target": "T1, Serine/threonine-protein kinase BRSK1 (Homo sapiens) (UniProt Q8TDC3)", "T1 sequence (whole entry)": "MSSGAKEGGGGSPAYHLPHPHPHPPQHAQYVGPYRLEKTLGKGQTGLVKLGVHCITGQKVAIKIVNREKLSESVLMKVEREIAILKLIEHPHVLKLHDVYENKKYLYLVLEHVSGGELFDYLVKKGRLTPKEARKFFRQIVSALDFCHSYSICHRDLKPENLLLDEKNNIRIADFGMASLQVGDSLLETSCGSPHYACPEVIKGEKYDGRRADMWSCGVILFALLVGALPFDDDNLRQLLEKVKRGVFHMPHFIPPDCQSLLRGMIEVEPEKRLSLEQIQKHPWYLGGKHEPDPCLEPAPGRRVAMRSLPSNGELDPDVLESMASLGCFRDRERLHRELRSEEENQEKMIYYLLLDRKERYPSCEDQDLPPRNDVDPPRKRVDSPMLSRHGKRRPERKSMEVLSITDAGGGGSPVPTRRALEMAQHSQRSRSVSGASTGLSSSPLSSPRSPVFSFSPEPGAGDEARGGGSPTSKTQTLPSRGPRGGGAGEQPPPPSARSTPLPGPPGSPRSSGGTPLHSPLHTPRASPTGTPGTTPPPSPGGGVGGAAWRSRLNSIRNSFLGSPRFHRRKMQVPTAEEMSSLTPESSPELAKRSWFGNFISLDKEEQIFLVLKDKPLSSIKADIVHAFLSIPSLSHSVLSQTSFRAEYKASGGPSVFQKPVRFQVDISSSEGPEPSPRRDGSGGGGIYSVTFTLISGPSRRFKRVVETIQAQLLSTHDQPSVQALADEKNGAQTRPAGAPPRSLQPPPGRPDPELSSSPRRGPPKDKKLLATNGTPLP", "test": "Selectivity interaction (Ambit KINOMEscan and KiNATiv profiling in Jurkat cells) EUB0000090b BRSK1", "type": "cell-based", "settings": "at 1 µM"}, "[2]": {"test": "Selectivity interaction (KinomeScan (DiscoverX)) EUB0001079a CDK2H", "settings": "at 1 µM"}, "[3]": {"molecular_target": "Tyrosine-protein kinase SYK (Homo sapiens, UniProt P43405)", "test": "Selectivity interaction (KinomeScan (DiscoverX)) EUB0001079a SYK", "settings": "at 1 µM"}, "[4]": {"system": "Tyrosine-protein kinase ABL1 (Homo sapiens), P00519 [F317I]", "sequence (P00519 whole entry F317I)": "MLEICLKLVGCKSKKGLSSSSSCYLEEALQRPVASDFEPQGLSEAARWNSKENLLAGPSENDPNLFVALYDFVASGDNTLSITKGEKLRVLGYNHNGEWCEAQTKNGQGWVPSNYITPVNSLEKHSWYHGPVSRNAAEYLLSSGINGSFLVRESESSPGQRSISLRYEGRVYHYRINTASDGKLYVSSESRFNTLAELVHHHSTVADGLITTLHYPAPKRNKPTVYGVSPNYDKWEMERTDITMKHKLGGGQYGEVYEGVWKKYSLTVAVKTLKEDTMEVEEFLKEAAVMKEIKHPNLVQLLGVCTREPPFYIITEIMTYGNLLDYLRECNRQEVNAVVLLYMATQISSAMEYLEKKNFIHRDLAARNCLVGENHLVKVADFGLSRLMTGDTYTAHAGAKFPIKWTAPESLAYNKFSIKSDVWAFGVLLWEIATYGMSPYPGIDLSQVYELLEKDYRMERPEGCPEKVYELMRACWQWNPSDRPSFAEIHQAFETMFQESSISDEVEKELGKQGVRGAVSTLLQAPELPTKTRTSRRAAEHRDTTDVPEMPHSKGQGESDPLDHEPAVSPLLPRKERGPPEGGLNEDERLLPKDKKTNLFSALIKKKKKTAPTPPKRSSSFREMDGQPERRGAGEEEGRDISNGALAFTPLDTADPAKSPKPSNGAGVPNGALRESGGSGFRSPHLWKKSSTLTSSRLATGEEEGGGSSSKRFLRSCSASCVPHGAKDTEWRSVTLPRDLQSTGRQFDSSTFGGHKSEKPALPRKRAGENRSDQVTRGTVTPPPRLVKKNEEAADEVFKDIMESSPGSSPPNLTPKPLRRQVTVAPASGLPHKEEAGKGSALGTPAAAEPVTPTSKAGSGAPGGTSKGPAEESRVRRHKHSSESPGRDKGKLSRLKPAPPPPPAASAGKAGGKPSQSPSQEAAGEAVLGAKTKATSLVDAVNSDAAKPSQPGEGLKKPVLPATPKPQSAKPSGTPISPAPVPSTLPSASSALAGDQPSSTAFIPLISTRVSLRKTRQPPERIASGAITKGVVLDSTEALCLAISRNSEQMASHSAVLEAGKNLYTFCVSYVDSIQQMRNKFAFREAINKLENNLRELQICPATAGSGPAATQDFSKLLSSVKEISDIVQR", "test": "Selectivity interaction (KinomeScan (DiscoverX)) EUB0000229b ABL1", "settings": "at 1 µM"}, "[5]": {"molecular_target": "T2, Uncharacterized serine/threonine-protein kinase SBK3 (Homo sapiens) (UniProt P0C264)", "T2 sequence (whole entry)": "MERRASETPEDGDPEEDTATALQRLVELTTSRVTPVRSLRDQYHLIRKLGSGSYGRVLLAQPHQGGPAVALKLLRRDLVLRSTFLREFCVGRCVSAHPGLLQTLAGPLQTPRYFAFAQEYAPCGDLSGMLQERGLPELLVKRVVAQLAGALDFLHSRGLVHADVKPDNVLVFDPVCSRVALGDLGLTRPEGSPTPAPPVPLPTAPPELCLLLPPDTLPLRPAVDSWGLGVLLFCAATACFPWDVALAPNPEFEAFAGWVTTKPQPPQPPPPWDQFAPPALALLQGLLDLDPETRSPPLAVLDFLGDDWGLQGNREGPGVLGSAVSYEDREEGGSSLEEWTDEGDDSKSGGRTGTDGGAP", "test": "Selectivity interaction (KinomeScan (DiscoverX)) EUB0000229b SBK3", "settings": "at 10 µM"}, "[6]": {"molecular_target": "Receptor-type tyrosine-protein kinase FLT3 (Homo sapiens) (UniProt P36888)", "test": "(§1) Selectivity interaction (KinomeScan (DiscoverX)) EUB0000666a FLT3", "settings": "at 10 µM"}, "[7]": {"system": "T3, Receptor-type tyrosine-protein kinase FLT3 (Homo sapiens), P36888 [R834Q]", "T3 sequence (whole entry)": "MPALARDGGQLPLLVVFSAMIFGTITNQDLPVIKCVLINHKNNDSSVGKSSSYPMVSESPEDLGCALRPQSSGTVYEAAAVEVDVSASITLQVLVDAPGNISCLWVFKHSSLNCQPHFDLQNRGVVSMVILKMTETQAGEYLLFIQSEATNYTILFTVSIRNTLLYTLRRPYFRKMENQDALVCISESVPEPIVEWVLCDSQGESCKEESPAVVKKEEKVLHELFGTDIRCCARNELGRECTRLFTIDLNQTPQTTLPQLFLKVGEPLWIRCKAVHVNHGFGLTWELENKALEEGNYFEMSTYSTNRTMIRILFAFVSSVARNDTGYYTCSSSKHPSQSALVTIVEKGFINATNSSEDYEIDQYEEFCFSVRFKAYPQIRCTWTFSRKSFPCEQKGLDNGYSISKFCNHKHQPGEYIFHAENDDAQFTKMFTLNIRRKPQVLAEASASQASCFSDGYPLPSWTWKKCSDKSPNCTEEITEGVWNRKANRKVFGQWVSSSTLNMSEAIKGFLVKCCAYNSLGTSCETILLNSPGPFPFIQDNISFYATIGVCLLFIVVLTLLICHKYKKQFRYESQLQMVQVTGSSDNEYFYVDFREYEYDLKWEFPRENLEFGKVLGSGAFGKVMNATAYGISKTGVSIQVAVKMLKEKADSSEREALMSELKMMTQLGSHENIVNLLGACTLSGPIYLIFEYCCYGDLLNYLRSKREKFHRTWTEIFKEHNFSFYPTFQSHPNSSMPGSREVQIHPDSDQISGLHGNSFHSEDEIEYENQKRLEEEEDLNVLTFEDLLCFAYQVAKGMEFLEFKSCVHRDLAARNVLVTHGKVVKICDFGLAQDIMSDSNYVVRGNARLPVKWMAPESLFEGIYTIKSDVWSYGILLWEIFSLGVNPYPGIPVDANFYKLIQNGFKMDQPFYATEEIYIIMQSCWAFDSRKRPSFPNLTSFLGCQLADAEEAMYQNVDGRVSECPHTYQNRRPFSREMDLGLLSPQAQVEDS", "test": "as §1", "settings": "at 10 µM"}, "[8]": {"system": "Receptor-type tyrosine-protein kinase FLT3 (Homo sapiens), P36888 [UNDEFINED MUTATION]", "test": "as §1", "settings": "at 10 µM"}, "[9]": {"system": "Leucine-rich repeat serine/threonine-protein kinase 2 (Homo sapiens), Q5S007 [G2019S]", "sequence (Q5S007 whole entry G2019S)": "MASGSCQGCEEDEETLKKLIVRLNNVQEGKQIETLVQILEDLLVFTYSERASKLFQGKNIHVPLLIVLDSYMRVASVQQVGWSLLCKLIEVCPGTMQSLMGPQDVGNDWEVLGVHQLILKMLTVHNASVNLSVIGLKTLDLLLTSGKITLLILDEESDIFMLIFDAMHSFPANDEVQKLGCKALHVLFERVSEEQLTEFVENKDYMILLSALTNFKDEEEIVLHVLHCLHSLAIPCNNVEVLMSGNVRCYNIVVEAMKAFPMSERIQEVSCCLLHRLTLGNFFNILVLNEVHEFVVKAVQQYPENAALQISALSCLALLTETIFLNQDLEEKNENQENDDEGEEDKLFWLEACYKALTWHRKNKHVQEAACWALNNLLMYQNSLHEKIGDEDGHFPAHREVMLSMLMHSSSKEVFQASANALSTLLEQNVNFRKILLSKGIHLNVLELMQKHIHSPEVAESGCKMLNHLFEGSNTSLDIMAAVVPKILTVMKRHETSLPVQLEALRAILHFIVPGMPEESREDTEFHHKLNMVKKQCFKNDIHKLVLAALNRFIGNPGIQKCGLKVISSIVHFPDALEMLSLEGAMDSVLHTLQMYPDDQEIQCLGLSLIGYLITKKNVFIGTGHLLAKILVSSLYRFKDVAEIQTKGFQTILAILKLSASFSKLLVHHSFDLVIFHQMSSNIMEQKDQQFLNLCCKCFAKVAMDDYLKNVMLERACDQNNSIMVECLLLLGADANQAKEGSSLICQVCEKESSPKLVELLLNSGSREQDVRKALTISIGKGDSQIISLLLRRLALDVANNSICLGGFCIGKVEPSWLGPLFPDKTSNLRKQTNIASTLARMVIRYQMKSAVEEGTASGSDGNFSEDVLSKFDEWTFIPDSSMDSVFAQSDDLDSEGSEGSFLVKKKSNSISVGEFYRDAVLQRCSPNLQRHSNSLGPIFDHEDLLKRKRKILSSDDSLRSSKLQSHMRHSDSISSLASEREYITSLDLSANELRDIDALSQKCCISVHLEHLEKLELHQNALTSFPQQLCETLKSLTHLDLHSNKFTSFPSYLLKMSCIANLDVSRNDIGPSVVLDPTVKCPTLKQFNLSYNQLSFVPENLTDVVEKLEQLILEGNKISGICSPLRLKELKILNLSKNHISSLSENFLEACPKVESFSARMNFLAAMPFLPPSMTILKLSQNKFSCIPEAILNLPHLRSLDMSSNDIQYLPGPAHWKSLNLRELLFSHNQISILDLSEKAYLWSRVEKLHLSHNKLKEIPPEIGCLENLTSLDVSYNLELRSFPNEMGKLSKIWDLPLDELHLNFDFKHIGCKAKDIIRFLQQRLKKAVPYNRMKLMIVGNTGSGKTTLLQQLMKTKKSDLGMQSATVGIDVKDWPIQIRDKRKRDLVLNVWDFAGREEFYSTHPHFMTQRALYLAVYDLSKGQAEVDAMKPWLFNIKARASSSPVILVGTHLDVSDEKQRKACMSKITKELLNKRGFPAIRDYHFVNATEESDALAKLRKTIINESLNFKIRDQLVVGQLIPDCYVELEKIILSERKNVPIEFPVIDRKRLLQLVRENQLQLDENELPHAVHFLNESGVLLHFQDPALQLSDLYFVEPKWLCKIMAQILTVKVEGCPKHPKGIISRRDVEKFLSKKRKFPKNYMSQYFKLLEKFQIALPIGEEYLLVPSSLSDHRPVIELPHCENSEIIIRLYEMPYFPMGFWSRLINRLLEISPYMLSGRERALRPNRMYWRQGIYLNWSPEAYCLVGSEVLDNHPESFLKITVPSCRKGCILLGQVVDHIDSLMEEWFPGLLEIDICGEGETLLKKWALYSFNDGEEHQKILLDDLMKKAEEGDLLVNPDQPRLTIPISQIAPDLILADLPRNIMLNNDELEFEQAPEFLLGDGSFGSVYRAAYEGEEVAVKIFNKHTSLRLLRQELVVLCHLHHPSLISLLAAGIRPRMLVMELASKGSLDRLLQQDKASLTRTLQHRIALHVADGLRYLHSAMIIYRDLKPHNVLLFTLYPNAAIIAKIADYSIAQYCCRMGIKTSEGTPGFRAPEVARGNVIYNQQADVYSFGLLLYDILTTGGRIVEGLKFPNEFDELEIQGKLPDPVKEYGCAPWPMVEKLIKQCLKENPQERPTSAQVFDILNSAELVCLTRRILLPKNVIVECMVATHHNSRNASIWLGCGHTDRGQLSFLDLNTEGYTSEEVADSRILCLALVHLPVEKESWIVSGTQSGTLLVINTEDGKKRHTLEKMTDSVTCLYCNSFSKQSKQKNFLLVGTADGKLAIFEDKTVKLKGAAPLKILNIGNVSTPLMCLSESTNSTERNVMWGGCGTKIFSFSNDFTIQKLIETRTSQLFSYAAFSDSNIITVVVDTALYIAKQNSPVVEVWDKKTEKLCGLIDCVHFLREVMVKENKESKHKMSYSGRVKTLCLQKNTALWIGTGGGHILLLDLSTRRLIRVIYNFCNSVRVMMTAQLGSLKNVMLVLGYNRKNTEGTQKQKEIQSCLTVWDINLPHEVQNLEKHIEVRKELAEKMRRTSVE", "test": "(§2) Selectivity interaction (KinomeScan (DiscoverX)) EUB0000695a LRRK2", "settings": "at 100 nM"}, "[10]": {"molecular_target": "Leucine-rich repeat serine/threonine-protein kinase 2 (Homo sapiens, UniProt Q5S007)", "sequence (Q5S007 whole entry)": "as the sequence (Q5S007 whole entry G2019S) above, with S2019G counted along it", "test": "as §2", "settings": "at 100 nM"}}}
{"molecule": "CN(C)C/C=C/C(=O)Nc1ccc(C(=O)N2CCCC(Nc3ncc(Cl)c(-c4c[nH]c5ccccc45)n3)C2)cc1", "note": "(stereo not given)", "values": [{"measurement": "% of control", "setting": "[1]", "result": 84, "unit": "%"}]}
{"molecule": "Nc1cnc(N2CCc3cc(S(=O)(=O)Nc4c(F)cc(Cl)cc4F)cc(N4CCCC4=O)c32)nc1", "note": "[TP-020n]", "values": [{"measurement": "% of control", "setting": "[2]", "result": 100, "unit": "%"}, {"measurement": "% of control", "setting": "[3]", "result": 100, "unit": "%"}]}
{"molecule": "COc1cc(N(C)c2ccnc3ccc(C(F)(F)F)cc23)cc(OC)c1OC", "values": [{"measurement": "% binding", "setting": "[4]", "result": 96, "unit": "%"}, {"measurement": "% binding", "setting": "[5]", "result": 100, "unit": "%"}]}
{"molecule": "O=C(NOC[C@H](O)CO)c1ccc(F)c(F)c1Nc1ccc(I)cc1F", "values": [{"measurement": "% of control", "setting": "[6]", "result": 82, "unit": "%"}, {"measurement": "% of control", "setting": "[7]", "result": 78, "unit": "%"}, {"measurement": "% of control", "setting": "[8]", "result": 100, "unit": "%"}]}
{"molecule": "Cc1cc(F)c(C(=O)Nc2cccc(-c3nncn3C(C)C)n2)cc1-n1cnc(C2CC2)c1", "values": [{"measurement": "% of control", "setting": "[9]", "result": 39, "unit": "%"}, {"measurement": "% of control", "setting": "[10]", "result": 18, "unit": "%"}]}
